Laboratory results published in US11203600B2 (Denali Therapeutics Inc., priority 2017, dated 2021).

Target: GST-hRIPK1 (8-327) (Homo sapiens (Human), UniProt Q13546)
Assay: Fluorescent Polarization Binding (FP Binding) assay, RIPK1
Details: 10 nM GST-hRIPK1 (8-327), 5 nM fluorescent-labeled ligand, RT, 30 min, mean of at least two independent experiments
Method in brief: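 Compound displacement of 5 nM labelled ligand from 10 nM GST-hRIPK1 (8-327) was read as FP (531/595 nm) after 30 min at RT. Buffer: HEPES pH 7.5, NaCl, MgCl2, CHAPS, DTT, Pluronic; 1% DMSO final. IC50s were averaged over at least two independent runs.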

Sequence of GST-hRIPK1 (8-327) (Q13546 8-327): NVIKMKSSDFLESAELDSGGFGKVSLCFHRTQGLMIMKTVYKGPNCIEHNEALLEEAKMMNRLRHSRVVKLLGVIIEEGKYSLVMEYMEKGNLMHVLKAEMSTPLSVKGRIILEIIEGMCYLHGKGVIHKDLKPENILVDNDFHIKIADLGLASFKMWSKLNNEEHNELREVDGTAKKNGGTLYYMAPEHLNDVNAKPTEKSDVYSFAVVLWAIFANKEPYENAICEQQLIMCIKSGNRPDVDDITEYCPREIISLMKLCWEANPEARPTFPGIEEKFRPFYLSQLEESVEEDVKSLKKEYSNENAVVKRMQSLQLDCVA

Row | Compound | IC50 [nM]
1 | CC(C)(C(=O)N1CCOc2c(cnc(Cl)c2C#N)C1)C(F)F [Example 59, 8-chloro-4-(3,3-difluoro-2,2-dimethyl-propanoyl)-3,5-dihydro-2H-pyrido[3,4-f][1,4]oxazepine-9-carbonitrile] | 100 to 1000
2 | N#Cc1cncc2c1OCCN(C(=O)C1(F)CCN(C(=O)c3cccnc3)CC1)C2 [Example 95, 4-[4-fluoro-1-(pyridine-3-carbonyl)piperidine-4-carbonyl]-3,5-dihydro-2H-pyrido[3,4-f][1,4]oxazepine-9-carbonitrile] | > 1000
3 | COC(C)(C(=O)N1CCOc2c(C#N)cncc2C1)C1CC1 (stereo not drawn) [Example 154, 4-(2-cyclopropyl-2-methoxy-propanoyl)-3,5-dihydro-2H-pyrido[3,4-f][1,4]oxazepine-9-carbonitrile] | 100 to 1000
4 | O=C(C1CCN(c2ncc(F)cn2)CC1)N1CCOc2c(F)cncc2C1 [Example 156, (9-fluoro-3,5-dihydro-2H-pyrido[3,4-f][1,4]oxazepin-4-yl)-[1-(5-fluoropyrimidin-2-yl)-4-piperidyl]methanone] | 0.1 to 100
5 | C[C@@H]1COc2c(C#N)cncc2CN1C(=O)C1(F)CCN(c2ncc(F)cn2)CC1 [Example 86, (3R)-4-[4-fluoro-1-(5-fluoropyrimidin-2-yl)piperidine-4-carbonyl]-3-methyl-3,5-dihydro-2H-pyrido[3,4-f][1,4]oxazepine-9-carbonitrile] | 0.1 to 100
6 | COc1nc(N2CCC(F)(C(=O)N3CCOc4c(C#N)cncc4C3)CC2)nc2ccccc12 [Example 197, 4-[4-fluoro-1-(4-methoxyquinazolin-2-yl)piperidine-4-carbonyl]-3,5-dihydro-2H-pyrido[3,4-f][1,4]oxazepine-9-carbonitrile] | 100 to 1000
7 | CC(C)(CC#N)C(=O)N1CCOc2c(F)cccc2C1 [Example 14, 4-(9-fluoro-3,5-dihydro-2H-1,4-benzoxazepin-4-yl)-3,3-dimethyl-4-oxo-butanenitrile] | 0.1 to 100
8 | CC(C)(CSc1ncc(F)cn1)C(=O)N1CCOc2c(C#N)cncc2C1 [Example 181] | > 1000
9 | O=C(C1CC(F)(F)C1)N1CCOc2ccccc2C1 [Example 1, (3,3-difluorocyclobutyl)(2,3-dihydrobenzo[f][1,4]oxazepin-4(5H)-yl)methanone] | > 1000
10 | C[C@@H]1COc2c(C#N)cncc2CN1C(=O)C(C)(C)C(F)F [Example 52, (3R)-4-(3,3-difluoro-2,2-dimethyl-propanoyl)-3-methyl-3,5-dihydro-2H-pyrido[3,4-f][1,4]oxazepine-9-carbonitrile] | 0.1 to 100
11 | CCC(C)(C)C(=O)N1CCOc2ccccc2C1 [Example 6, 1-(3,5-dihydro-2H-1,4-benzoxazepin-4-yl)-2,2-dimethyl-butan-1-one] | 0.1 to 100
12 | Cn1ncc2cnc(N3CCC(F)(C(=O)N4CCOc5c(C#N)cncc5C4)CC3)cc21 [Example 107, 4-[4-fluoro-1-(1-methylpyrazolo[4,3-c]pyridin-6-yl)piperidine-4-carbonyl]-3,5-dihydro-2H-pyrido[3,4-f][1,4]oxazepine-9-carbonitrile] | 100 to 1000
13 | N#Cc1cncc2c1OCCN(C(=O)C1(F)CCN(c3ncc(C(F)F)cn3)CC1)C2 [Example 189, 4-[1-[5-(difluoromethyl)pyrimidin-2-yl]-4-fluoro-piperidine-4-carbonyl]-3,5-dihydro-2H-pyrido[3,4-f][1,4]oxazepine-9-carbonitrile] | 100 to 1000
14 | CC(C)(C)C(=O)N1CCOc2c(F)cncc2C1 [Example 80, 1-(9-fluoro-3,5-dihydro-2H-pyrido[3,4-f][1,4]oxazepin-4-yl)-2,2-dimethyl-propan-1-one] | 100 to 1000
15 | CC(C)(C(=O)N1CCOc2c(C#N)cncc2C1)C(F)F [Example 29, 4-(3,3-difluoro-2,2-dimethyl-propanoyl)-3,5-dihydro-2H-pyrido[3,4-f][1,4]oxazepine-9-carbonitrile] | 0.1 to 100
16 | COC1(C(=O)N2CCOc3c(C#N)cncc3C2)CCN(c2ccc(F)cn2)CC1 [Example 190, 4-[1-(5-fluoro-2-pyridyl)-4-methoxy-piperidine-4-carbonyl]-3,5-dihydro-2H-pyrido[3,4-f][1,4]oxazepine-9-carbonitrile] | 100 to 1000
17 | N#Cc1cncc2c1OCCN(C(=O)C1(F)CCN(c3cc4ccccc4cn3)CC1)C2 [Example 199, 4-[4-fluoro-1-(3-isoquinolyl)piperidine-4-carbonyl]-3,5-dihydro-2H-pyrido[3,4-f][1,4]oxazepine-9-carbonitrile] | 0.1 to 100
18 | COCC(C)(C)C(=O)N1CCOc2c(C#N)cncc2C1 [Example 150, 4-(3-methoxy-2,2-dimethyl-propanoyl)-3,5-dihydro-2H-pyrido[3,4-f][1,4]oxazepine-9-carbonitrile] | 100 to 1000
19 | CC(C)(CC(F)F)C(=O)N1CCOc2c(F)cccc2C1 [Example 16, 4,4-difluoro-1-(9-fluoro-3,5-dihydro-2H-1,4-benzoxazepin-4-yl)-2,2-dimethyl-butan-1-one] | 0.1 to 100
20 | CC(C)(C(=O)N1CCOc2ccccc2C1)C(F)F [Example 7, 1-(3,5-dihydro-2H-1,4-benzoxazepin-4-yl)-3,3-difluoro-2,2-dimethyl-propan-1-one] | 0.1 to 100
21 | COc1ccc2c(c1)OCCN(C(=O)C(C)(C)C(F)F)C2 [Example 12, 3,3-difluoro-1-(8-methoxy-3,5-dihydro-2H-14-benzoxazepin-4-yl)-2,2-dimethyl-propan-1-one] | 100 to 1000

Same assay, conditions: GST-hRIPK1 (8-327), mean of at least two independent experiments

Row | Compound | IC50 [nM]
22 | O=C(C1CCN(c2nccc3ncnn23)C[C@@H]1F)N1CCOc2c(F)cncc2C1 (stereo partly drawn) [Example 255] | 100 to 1000
23 | N#Cc1cncc2c1OCCN(C(=O)C1(F)CCN(c3nc(Cl)ncc3F)CC1)C2 [Example 202, 4-[1-(2-chloro-5-fluoro-pyrimidin-4-yl)-4-fluoro-piperidine-4-carbonyl]-3,5-dihydro-2H-pyrido[3,4-f][1,4]oxazepine-9-carbonitrile] | 0.1 to 100
24 | Cc1ncc2c(c1C#N)OCCN(C(=O)C(C)(C)C(F)F)C2 [Example 262, 4-(3,3-difluoro-2,2-dimethyl-propanoyl)-8-methyl-3,5-dihydro-2H-pyrido[3,4-f][1,4]oxazepine-9-carbonitrile] | 100 to 1000
25 | N#Cc1cncc2c1OCCN(C(=O)C1CCN(c3ncc(F)cn3)CC1O)C2 (stereo not drawn) [Example 211, 4-[1-(5-fluoropyrimidin-2-yl)-3-hydroxy-piperidine-4-carbonyl]-3,5-dihydro-2H-pyrido[3,4-f][1,4]oxazepine-9-carbonitrile] | 100 to 1000
26 | Cn1nccc(N2CCC(C(=O)N3CCOc4c(C#N)cncc4C3)[C@@H](F)C2)c1=O (stereo partly drawn) [Example 224, 4-[(3,4)-trans-3-fluoro-1-(2-methyl-3-oxo-pyridazin-4-yl)piperidine-4-carbonyl]-3,5-dihydro-2H-pyrido[3,4-f][1,4]oxazepine-9-carbonitrile] | > 1000
27 | CC(C)(C(=O)N1CCOc2c(C#N)cncc2C1)C1CC(OC(F)(F)F)C1 (stereo not drawn) [Example 279, 4-[2-methyl-2-[3-(trifluoromethoxy)cyclobutyl]propanoyl]-3,5-dihydro-2H-pyrido[3,4-f][1,4]oxazepine-9-carbonitrile] | 0.1 to 100
28 | N#Cc1cncc2c1OCCN(C(=O)C1CCN(c3ncnc4ccnn34)CC1(F)F)C2 (stereo not drawn) [Example 220] | 100 to 1000
29 | N#Cc1cncc2c1OCCN(C(=O)C1CCN(c3nccn4ncnc34)CC1F)C2 (single isomer, unassigned) [Example 302, 4-[3-Fluoro-1-([1,2,4]triazolo[1,5-a]pyrazin-8-yl)piperidine-4-carbonyl]-3,5-dihydro-2H-pyrido[3,4-f][1,4]oxazepine-9-carbonitrile] | 0.1 to 100
30 | O=C(C1CCN(c2ccnc3c(F)cnn23)C[C@@H]1F)N1CCOc2c(F)cncc2C1 (stereo partly drawn) [Example 256, (9-fluoro-3,5-dihydro-2H-pyrido[3,4-f][1,4]oxazepin-4-yl)-[(3,4)-trans-3-fluoro-1-(3-fluoropyrazolo[1,5-a]pyrimidin-7-yl)-4-piperidyl]methanone] | 0.1 to 100
31 | CC1(C(=O)N2CCOc3c(C#N)cncc3C2)CCN(c2ncc(F)cn2)CC1F (single isomer, unassigned) [Example 299, 4-[3-Fluoro-1-(5-fluoropyrimidin-2-yl)-4-methyl-piperidine-4-carbonyl]-3,5-dihydro-2H-pyrido[3,4-f][1,4]oxazepine-9-carbonitrile] | 0.1 to 100
32 | N#Cc1cncc2c1OCCN(C(=O)C1CCN(c3ccnc4c(F)cnn34)CC1)C2 [Example 228, 4-[1-(3-fluoropyrazolo[1,5-a]pyrimidin-7-yl)piperidine-4-carbonyl]-3,5-dihydro-2H-pyrido[3,4-f][1,4]oxazepine-9-carbonitrile] | 0.1 to 100
33 | CC(CF)(C(=O)N1CCOc2c(C#N)cncc2C1)C(F)F (stereo not drawn) [Example 266, 4-[3,3-Difluoro-2-(fluoromethyl)-2-methyl-propanoyl]-3,5-dihydro-2H-pyrido[3,4-f][1,4]oxazepine-9-carbonitrile] | 100 to 1000
34 | CC1(C(=O)N2CCOc3c(C#N)cncc3C2)CCN(c2ncccn2)CC1(F)F (single isomer, unassigned) [Example 298, 4-[3,3-Difluoro-4-methyl-1-pyrimidin-2-yl-piperidine-4-carbonyl]-3,5-dihydro-2H-pyrido[3,4-f][1,4]oxazepine-9-carbonitrile] | > 1000
35 | CC(C)(C(=O)N1CCOc2c(C#N)cncc2C1)C1CCN(c2ncc(F)cn2)C1 (single isomer, unassigned) [Example 280, 4-[2-(-1-(5-Fluoropyrimidin-2-yl)pyrrolidin-3-yl)-2-methyl-propanoyl]-3,5-dihydro-2H-pyrido[3,4-f][1,4]oxazepine-9-carbonitrile] | > 1000
36 | CC1(C(=O)N2CCOc3c(C#N)cncc3C2)CCN(c2ncc(F)c(=O)[nH]2)CC1(F)F (stereo not drawn) [Example 216, 4-[3,3-difluoro-1-(5-fluoro-6-oxo-1H-pyrimidin-2-yl)-4-methyl-piperidine-4-carbonyl]-3,5-dihydro-2H-pyrido[3,4-f][1,4]oxazepine-9-carbonitrile] | 100 to 1000
